According to PubChem BioAssay (NCI):
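Cultured in 96-well plates, cells were exposed to test compound for 48 hours across five concentrations. GI50: concentration for 50% inhibition of growth. TGI is the concentration that stops growth completely.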

Assays:
Assay in all cases: NCI-60 cell line screen, 48 h
IGROV1 ovarian = system: IGROV1 ovarian
K-562 leukemia = system: K-562 leukemia
HOP-92 NSCLC = system: HOP-92 NSCLC
A498 renal = system: A498 renal
CCRF-CEM leukemia = system: CCRF-CEM leukemia
M14 melanoma = system: M14 melanoma
SF-539 CNS = system: SF-539 CNS
EKVX NSCLC = system: EKVX NSCLC
HS 578T breast = system: HS 578T breast
LOX IMVI melanoma = system: LOX IMVI melanoma
T-47D breast = system: T-47D breast
BT-549 breast = system: BT-549 breast
KM12 colon = system: KM12 colon
786-0 renal = system: 786-0 renal
TK-10 renal = system: TK-10 renal
UO-31 renal = system: UO-31 renal
SK-MEL-2 melanoma = system: SK-MEL-2 melanoma
DU-145 prostate = system: DU-145 prostate
U251 CNS = system: U251 CNS
NCI/ADR-RES ovarian = system: NCI/ADR-RES ovarian
MDA-MB-435 = system: MDA-MB-435
HL-60(TB) leukemia = system: HL-60(TB) leukemia
UACC-257 melanoma = system: UACC-257 melanoma
OVCAR-3 ovarian = system: OVCAR-3 ovarian
MCF7 breast = system: MCF7 breast
OVCAR-8 ovarian = system: OVCAR-8 ovarian
HT29 colon = system: HT29 colon
ACHN renal = system: ACHN renal
A549 NSCLC = system: A549 NSCLC
SN12C renal = system: SN12C renal
NCI-H226 lung = system: NCI-H226 lung
SNB-75 CNS = system: SNB-75 CNS
UACC-62 melanoma = system: UACC-62 melanoma
SK-MEL-5 melanoma = system: SK-MEL-5 melanoma
OVCAR-4 ovarian = system: OVCAR-4 ovarian
SNB-19 CNS = system: SNB-19 CNS
PC-3 prostate = system: PC-3 prostate
RXF 393 renal = system: RXF 393 renal
CAKI-1 renal = system: CAKI-1 renal
SK-OV-3 ovarian = system: SK-OV-3 ovarian
SF-295 CNS = system: SF-295 CNS
MDA-MB-231 breast = system: MDA-MB-231 breast
HCC-2998 colon = system: HCC-2998 colon
HCT-15 colon = system: HCT-15 colon
NCI-H23 lung = system: NCI-H23 lung
SK-MEL-28 melanoma = system: SK-MEL-28 melanoma
SW-620 colon = system: SW-620 colon
NCI-H460 lung = system: NCI-H460 lung
OVCAR-5 ovarian = system: OVCAR-5 ovarian
MALME-3M melanoma = system: MALME-3M melanoma
COLO 205 colon = system: COLO 205 colon
HOP-62 NSCLC = system: HOP-62 NSCLC
NCI-H522 lung = system: NCI-H522 lung
SF-268 CNS = system: SF-268 CNS
RPMI-8226 leukemia = system: RPMI-8226 leukemia
HCT-116 colon = system: HCT-116 colon
SR leukemia = system: SR leukemia
MOLT-4 leukemia = system: MOLT-4 leukemia

Cc1ccc(S(=O)(=O)n2cc([C@@]3(O)C[C@H](CSC#N)OC3=O)c3ccccc32)cc1
GI50 (IGROV1 ovarian): 7.54 µM
TGI (IGROV1 ovarian): 22.4 µM
GI50 (K-562 leukemia): 6.2 µM
TGI (K-562 leukemia): 23.6 µM
GI50 (HOP-92 NSCLC): 23.9 µM
TGI (HOP-92 NSCLC): 71.3 µM
GI50 (A498 renal): 14.7 µM
TGI (A498 renal): 46.5 µM
GI50 (CCRF-CEM leukemia): 3.17 µM
TGI (CCRF-CEM leukemia): 25.2 µM
GI50 (M14 melanoma): 7.94 µM
TGI (M14 melanoma): 35.9 µM
GI50 (SF-539 CNS): 4.57 µM
TGI (SF-539 CNS): 16.2 µM
GI50 (EKVX NSCLC): > 100 µM
TGI (EKVX NSCLC): > 100 µM
GI50 (HS 578T breast): 8.7 µM
TGI (HS 578T breast): 32.6 µM
GI50 (LOX IMVI melanoma): 8.83 µM
TGI (LOX IMVI melanoma): 66.4 µM
GI50 (T-47D breast): 12.8 µM
TGI (T-47D breast): 32.5 µM
GI50 (BT-549 breast): 16.9 µM
TGI (BT-549 breast): 33.1 µM
GI50 (KM12 colon): 4.65 µM
TGI (KM12 colon): 23 µM
GI50 (786-0 renal): 12.7 µM
TGI (786-0 renal): 26.5 µM
GI50 (TK-10 renal): 16.3 µM
TGI (TK-10 renal): 37.8 µM
GI50 (UO-31 renal): 4.62 µM
TGI (UO-31 renal): 19.3 µM
GI50 (SK-MEL-2 melanoma): 9.23 µM
TGI (SK-MEL-2 melanoma): 24.4 µM
GI50 (DU-145 prostate): 4.39 µM
TGI (DU-145 prostate): 15.3 µM
GI50 (U251 CNS): 12.8 µM
TGI (U251 CNS): 32.7 µM
GI50 (NCI/ADR-RES ovarian): 13.5 µM
TGI (NCI/ADR-RES ovarian): 38.8 µM
GI50 (MDA-MB-435): 6.78 µM
TGI (MDA-MB-435): 24.6 µM
GI50 (HL-60(TB) leukemia): 3.5 µM
TGI (HL-60(TB) leukemia): 12.2 µM
GI50 (UACC-257 melanoma): 10.9 µM
TGI (UACC-257 melanoma): 56.4 µM
GI50 (OVCAR-3 ovarian): 8.81 µM
TGI (OVCAR-3 ovarian): 21 µM
GI50 (MCF7 breast): 2800 nM
TGI (MCF7 breast): 18.1 µM
GI50 (OVCAR-8 ovarian): 10.2 µM
TGI (OVCAR-8 ovarian): 22.5 µM
GI50 (HT29 colon): 11.9 µM
TGI (HT29 colon): 55 µM
GI50 (ACHN renal): 11.2 µM
TGI (ACHN renal): 27.1 µM
GI50 (A549 NSCLC): 29.2 µM
TGI (A549 NSCLC): > 100 µM
GI50 (SN12C renal): 7.97 µM
TGI (SN12C renal): 24.9 µM
GI50 (NCI-H226 lung): 16.8 µM
TGI (NCI-H226 lung): 32.6 µM
GI50 (SNB-75 CNS): 15.5 µM
TGI (SNB-75 CNS): 71 µM
GI50 (UACC-62 melanoma): 15 µM
TGI (UACC-62 melanoma): 35.5 µM
GI50 (SK-MEL-5 melanoma): 2440 nM
TGI (SK-MEL-5 melanoma): 19.8 µM
GI50 (OVCAR-4 ovarian): 15.6 µM
TGI (OVCAR-4 ovarian): 43.3 µM
GI50 (SNB-19 CNS): > 100 µM
TGI (SNB-19 CNS): > 100 µM
GI50 (PC-3 prostate): 17.8 µM
TGI (PC-3 prostate): 50.4 µM
GI50 (RXF 393 renal): 2130 nM
TGI (RXF 393 renal): 7.61 µM
GI50 (CAKI-1 renal): 83.6 nM
TGI (CAKI-1 renal): 25.8 µM
GI50 (SK-OV-3 ovarian): 58.8 µM
TGI (SK-OV-3 ovarian): > 100 µM
GI50 (SF-295 CNS): 16.1 µM
TGI (SF-295 CNS): 69.2 µM
GI50 (MDA-MB-231 breast): 8.44 µM
TGI (MDA-MB-231 breast): 22.4 µM
GI50 (HCC-2998 colon): 27 µM
TGI (HCC-2998 colon): > 100 µM
GI50 (HCT-15 colon): 13.6 µM
TGI (HCT-15 colon): 71.2 µM
GI50 (NCI-H23 lung): 26.5 µM
TGI (NCI-H23 lung): > 100 µM
GI50 (SK-MEL-28 melanoma): 14 µM
TGI (SK-MEL-28 melanoma): 27.7 µM
GI50 (SW-620 colon): 5.98 µM
TGI (SW-620 colon): 19.5 µM
GI50 (NCI-H460 lung): 9.19 µM
TGI (NCI-H460 lung): 23.9 µM
GI50 (OVCAR-5 ovarian): 13.2 µM
TGI (OVCAR-5 ovarian): 28.2 µM
GI50 (MALME-3M melanoma): 12.1 µM
TGI (MALME-3M melanoma): 35.2 µM
GI50 (COLO 205 colon): 6.42 µM
TGI (COLO 205 colon): 33.6 µM
GI50 (HOP-62 NSCLC): 25.1 µM
TGI (HOP-62 NSCLC): 57.4 µM
GI50 (NCI-H522 lung): 3.99 µM
TGI (NCI-H522 lung): 18.1 µM
GI50 (SF-268 CNS): 5.1 µM
TGI (SF-268 CNS): 19.7 µM
GI50 (RPMI-8226 leukemia): 2750 nM
TGI (RPMI-8226 leukemia): 40.1 µM
GI50 (HCT-116 colon): 5.07 µM
TGI (HCT-116 colon): 17.7 µM
GI50 (SR leukemia): 410 nM
TGI (SR leukemia): 4.76 µM
GI50 (MOLT-4 leukemia): 1710 nM
TGI (MOLT-4 leukemia): 4.52 µM
